Reference: patent US11566049B2, “Cyclic peptides and uses thereof” (LATERAL IP PTY LTD, priority 2018, dated 2023)
Several values for one entry are separate records, joined by “and”; a condition that tells them apart may be missing. Identical values can stand only once. Entries after “also recorded” stand apart in the source; their conditions may differ.

Test system: dorsal horn neurons
Assay: whole-cell recording of dorsal horn neurons in spinal cord slices from Chung models (Example 4)
Assay type: cell-based, rat
Conditions: 1 μM; for Input Resistance, mean in presence of peptide / Membrane Potential, mean in presence of peptide: all cells; for Normalised Input Resistance / Normalised Input Resistance ΔIR: control = 100; for effect on membrane potential and activity of dorsal horn neurons: ipsilateral to injury; for Normalised Membrane Potential / Normalised Membrane Potential ΔVm: rest = 100; for reversal potential of induced response (VI plots intersect): single cells; for ΔIR, change in neuronal input resistance: vs control, in table positive = reduction, negative = increase; for ΔVm, change in membrane potential: vs rest, in table positive = hyperpolarisation, negative = depolarisation
Protocol: Adult male Sprague-Dawley rats, weighing 220-250 g (aged/weeks and older) at the time of surgery, were used in this study. They were housed in groups of 4, in an air-conditioned room, on a 12-hour light/dark cycle with food and water available ad libitum. All experiments were performed in accordance with the U.K. Animals (Scientific Procedures) Act (1986).
The animals were housed in groups of 4 in an air-conditioned room on a 12-hour light/dark cycle. Food and water were available ad libitum. They were allowed to acclimatise to the environment for experiments for three days by leaving them on a raised metal mesh for at least 40 min. The baseline paw withdrawal threshold (PWT) was examined using a series of graduated von Frey hairs (see below) for 3 consecutive days before surgery and re-assessed on the 6th to 8th day after surgery and on the 12th to 14th day after surgery before drug dosing.
Each rat was anaesthetized with 5% isoflurane mixed with oxygen (2 L per min) followed by an intramuscular (i.m.) injection of ketamine 90 mg/kg plus xylazine 10 mg/kg. The back was shaved and sterilized with povidone-iodine. The animal was placed in a prone position and a para-medial incision was made on the skin covering the L4-6 level. The L5 spinal nerve was carefully isolated and tightly ligated with 6/0 silk suture. The wound was then closed in layers after a complete haemostasis. A single dose of antibiotics (Amoxipen, 15 mg/rat, i.p.) was routinely given for prevention of infection after surgery. The animals were placed in a temperature-controlled recovery chamber until fully awake before being returned to their home cages.
LAT9993 LoopS (SEQ ID NO:28), SEQ11+LAT9993 Loop (SEQ ID NO:32; […]), SEQ25+LAT9993 Loop (SEQ ID NO:33; […]), LAT9993 SLoop A4 (SEQ ID NO:30), LAT9993 SLoop A7 (SEQ ID NO:31), LAT9993 SLoop A9 (SEQ ID NO:34; SCRSRPVEASC) and LAT9993 SLoop A10 (SEQ ID NO:35; SCRSRPVESAC), were solubilised in distilled water and made up as concentrated stocks and stored frozen until the day of experiment when they were diluted to the required test concentrations in artificial cerebrospinal fluid (aCSF), as described in Example 3, above.
Ten to fourteen days after surgery, animals were placed in individual Perspex boxes on a raised metal mesh for at least 40 minutes prior to PWT testing. Starting with the filament of lowest force (1 g), each filament was applied perpendicularly to the centre of the ventral surface of the paw until slightly bent for 6 seconds. If the animal withdrew or lifted its paw upon stimulation, a von Frey hair with force immediately lower than that tested was subsequently used. If no response was observed, then a hair with force immediately higher was tested. The lowest amount of force required to induce reliable responses (positive in 2 out of 3 trials) was recorded as the value of PWT. Only animals showing significant mechanical allodynia (PWT≤3.5 g) were selected for subsequent electrophysiological experiments (see FIG. 5).
Once validation of a neuropathic state had been confirmed, animals were terminally anesthetized using isoflurane (Norvartis Animal Health UK Ltd.), cervically dislocated and decapitated. A laminectomy was performed and the spinal cord, with spinal roots and DRG attached, removed and cut into 250-450 μm thick slices using a Leica VT1000S vibrating microtome (Leica Microsystems UK, Milton Keynes, United Kingdom). Slices were maintained in artificial cerebrospinal fluid (aCSF) at room temperature for 1 hr after slicing before recording. For recording, individual slices were held between two grids in a custom-built chamber continuously perfused with aCSF at a rate of 4-10 ml.min^−1, illuminated from below, and viewed under a dissection microscope. The aCSF was of the following composition (mM): NaCl, 127; KCl, 1.9; KH2PO4, 1.2; CaCl2, 2.4; MgCl2, 1.3; NaHCO3, 26; D-glucose, 10; equilibrated with 95% O2-5% CO2. […]

[1] = listed as SEQ 11 + LAT9993 Loop

Sequence	dorsal root afferent-mediated EPSPs / synaptic inputs (words)	Input Resistance, mean in presence of peptide	Membrane Potential, mean in presence of peptide	Normalised Input Resistance	Normalised Input Resistance ΔIR	effect on membrane potential and activity of dorsal horn neurons	Normalised Membrane Potential	Normalised Membrane Potential ΔVm	reversal potential of induced response (VI plots intersect)	ΔIR, change in neuronal input resistance	ΔVm, change in membrane potential [mV]	further results
SCRSRPAESSC (listed as Homo sapiens) [LAT9993 SLoop A7, peptide variant of formula (I)]	suppressed dorsal root-evoked excitatory posts-synaptic potentials (EPSPs) in some neurons	292.9±81.3 MΩ and 292.9 MΩ	−46.2±4.3 mV and −46.2 mV	93.3	6.7	membrane hyperpolarisation and inhibition of activity in 1 neurone; also recorded: membrane depolarisation in 1 neurone; also recorded: no effect on membrane potential in the remaining neurone	95.3	4.7	around −90 mV	22.8±59.8 MΩ and 22.8 MΩ	–	effect on membrane potential and activity of dorsal horn neurons (listed as LAT9993 Loop A7): membrane depolarisation; dorsal root afferent-mediated EPSPs / synaptic inputs (words) (listed as LAT9993 Loop A7): suppressed dorsal root afferent-mediated excitatory synaptic inputs; also recorded: partly suppressed
SCRSRPVEASC (listed as Homo sapiens) [LAT9993 SLoop A9, peptide variant of formula (I)]	little effect	243.1±54.4 MΩ and 243.1 MΩ	−45.6±11.2 mV and −45.6 mV	134.0	−34.0	–	76.9	23.1	no obvious reversal potentials	–	–	dorsal root-evoked IPSPs: little effect; effect on membrane potential and activity of dorsal horn neurons (listed as LAT9993 Loop A9): membrane depolarisation in all neurons; dorsal root afferent-mediated EPSPs / synaptic inputs (words) (listed as LAT9993 Loop A9): no obvious effect; also recorded: little effect
IDPSSEAPGHSCRSRPVESSC (listed as Homo sapiens) [SEQ11+LAT9993 Loop, peptide variant of formula (I)]	little effect; also recorded: No obvious effect	338.1±103.7 MΩ	−52.3±9.8 mV	85.6	14.4	membrane hyperpolarisation and inhibition of activity in 2 neurons; also recorded: membrane depolarisation in the other neurone	101.4	−1.4	around −65 mV	109.5±140.2 MΩ	1.6±3.4	Input Resistance, mean in presence of peptide [1]: 338.1 MΩ; Membrane Potential, mean in presence of peptide [1]: −52.3 mV; ΔIR, change in neuronal input resistance [1]: 109.5 MΩ; ΔVm, change in membrane potential [1]: 1.6 mV
SCRARPVESSC (listed as Homo sapiens) [LAT9993 SLoop A4, peptide variant of formula (I)]	suppressed	294.6±40.7 MΩ	−53.3±5.1 mV	78.3	21.7	membrane hyperpolarisation and inhibition of activity in 1 neurone; also recorded: membrane depolarisation in 3 neurons	107.7	−7.7	–	103.1±55.5 MΩ	4.2±3.1	Input Resistance, mean in presence of peptide (listed as LAT9993 Sloop A4): 294.6 MΩ; Membrane Potential, mean in presence of peptide (listed as LAT9993 Sloop A4): −53.3 mV; effect on membrane potential and activity of dorsal horn neurons (listed as LAT9993 Loop A4): membrane hyperpolarisation and suppression of activity; dorsal root afferent-mediated EPSPs / synaptic inputs (words) (listed as LAT9993 Loop A4): suppressed dorsal root-evoked excitatory synaptic transmission; also recorded: partly suppressed; ΔIR, change in neuronal input resistance (listed as LAT9993 Sloop A4): 103.1 MΩ; ΔVm, change in membrane potential (listed as LAT9993 Sloop A4): 4.2 mV
CRSRPVESSCSSKFSWDEYEQYKKE (listed as Homo sapiens) [SEQ25+LAT9993 Loop, peptide variant of formula (I)]	suppressed dorsal root-evoked excitatory posts-synaptic potentials (EPSPs) in one neurone; also recorded: suppressed dorsal root afferent-mediated synaptic inputs; also recorded: partly suppressed	339.6±97.6 MΩ	−49.1±3.0 mV	101.7	−1.7	induced inhibition of spontaneous activity and suppressed an after-depolarising potential; also recorded: slight depolarisation of the membrane potential	93.7	6.3	–	1.4±18.2 MΩ	3.4±0.9	Input Resistance, mean in presence of peptide (listed as SEQ25 + LAT9993 Loop): 339.6 MΩ; Membrane Potential, mean in presence of peptide (listed as SEQ25 + LAT9993 Loop): −49.1 mV; ΔIR, change in neuronal input resistance (listed as SEQ25 + LAT9993 Loop): −1.4 MΩ; ΔVm, change in membrane potential (listed as SEQ25 + LAT9993 Loop): −3.4 mV
